Experiment [1] concerns the target T1, Amine oxidase [flavin-containing] B (Homo sapiens, UniProt P27338).
T1 sequence (P27338 whole entry): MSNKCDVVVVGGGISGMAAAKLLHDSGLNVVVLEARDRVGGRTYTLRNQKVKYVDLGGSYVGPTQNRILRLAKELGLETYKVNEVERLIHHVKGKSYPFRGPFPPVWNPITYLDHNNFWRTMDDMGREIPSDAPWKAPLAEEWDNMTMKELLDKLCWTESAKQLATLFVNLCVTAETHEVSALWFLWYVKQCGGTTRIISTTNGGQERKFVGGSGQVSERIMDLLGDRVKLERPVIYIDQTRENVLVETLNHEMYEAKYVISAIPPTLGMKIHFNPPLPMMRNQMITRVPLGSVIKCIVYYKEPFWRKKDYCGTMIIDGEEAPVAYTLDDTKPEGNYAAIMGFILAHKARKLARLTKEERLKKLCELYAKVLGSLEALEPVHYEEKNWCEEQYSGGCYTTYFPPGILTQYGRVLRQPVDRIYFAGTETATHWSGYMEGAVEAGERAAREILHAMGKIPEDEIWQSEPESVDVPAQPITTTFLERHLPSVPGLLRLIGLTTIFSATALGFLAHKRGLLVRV

In experiment [2] the target is T2, Amine oxidase [flavin-containing] A (Homo sapiens, UniProt P21397).
T2 sequence (P21397 whole entry): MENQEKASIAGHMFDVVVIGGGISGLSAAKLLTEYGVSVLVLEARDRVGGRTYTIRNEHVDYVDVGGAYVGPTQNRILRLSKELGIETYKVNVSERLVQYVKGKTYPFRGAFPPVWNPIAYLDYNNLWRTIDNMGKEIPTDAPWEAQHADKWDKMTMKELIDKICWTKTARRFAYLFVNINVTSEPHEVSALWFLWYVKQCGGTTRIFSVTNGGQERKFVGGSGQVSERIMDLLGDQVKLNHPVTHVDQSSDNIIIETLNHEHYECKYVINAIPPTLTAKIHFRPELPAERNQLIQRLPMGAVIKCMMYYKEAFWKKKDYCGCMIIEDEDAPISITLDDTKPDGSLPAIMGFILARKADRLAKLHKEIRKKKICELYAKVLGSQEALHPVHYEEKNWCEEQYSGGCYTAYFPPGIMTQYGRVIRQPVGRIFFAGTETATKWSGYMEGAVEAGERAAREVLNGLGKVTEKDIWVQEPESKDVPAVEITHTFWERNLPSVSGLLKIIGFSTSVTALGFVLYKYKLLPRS

Experiment [3] addresses Lysine-specific histone demethylase 1A (Homo sapiens, UniProt O60341).

What is called IC50 is the point on the concentration scale where inhibition reaches its midpoint. Higher therefore signals a need for much substance.

Take `C[C@H](N)C(=O)N[C@@H](CCCNC(=N)N)C(=O)N[C@H](C(=O)N[C@@H](CCCCN[C@@H]1C[C@H]1c1ccccc1)C(=O)N[C@@H](CCC(N)=O)C(=O)N[C@H](C(=O)N[C@@H](C)C(=O)N[C@@H](CCCNC(=N)N)C(=O)N[C@@H](CCCCN)C(=O)N[C@@H](CO)C(=O)N[C@H](C(=O)O)[C@@H](C)O)[C@@H](C)O)[C@@H](C)O`: the IC50 in experiment [1] is greater than 10 µM; in experiment [2], greater than 10 µM; in experiment [3], 0.154 µM.

Source of the values: ChEMBL document CHEMBL4177723, “Histone H3 peptides incorporating modified lysine residues as lysine-specific demethylase 1 inhibitors” (Bioorg Med Chem Lett, 2018).
